Test results from patent US12091425B2 (AMGEN INC., priority 2016, dated 2024).

How the values were obtained:
[1] = biological target: T1, Mcl-1/Bim interaction, recombinant human Mcl-1 (171-327) (Homo sapiens, UniProt Q07820); assay: Cell free Mcl-1: Bim Affinity Assay (Mcl-1 HTRF); format: binding
T1 construct: made in house
Summary of the method: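 Compounds were mixed with the protein and a biotinylated Bim peptide spanning human residues 51-76. Plates were left overnight, then TR-FRET signal was measured. A four-parameter sigmoidal model applied to duplicate competition data gave IC50.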

[2] = tested on: OPM-2 human multiple myeloma cell line; assay: Cell Viability Assay (OPM-2 10 FBS); format: cell-based; conditions: OPM-2 cells, CellTiter-Glo
Summary of the method: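 IC50 from 4-parameter logistic fit of CellTiter-Glo luminescence. 3000 cells/well, 10% FBS medium, serial compound dilutions, 16 h, 37 °C/5% CO2; read 25 min post-reagent.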

[3] = TR-FRET, 0.1 nM Mcl-1 (171-327), 0.05 nM biotin-Bim (51-76)
[4] = Homo sapiens, OPM-2, 16 h, 16 h incubation
[5] = Homo sapiens, OPM-2, 16 h, 16 h
[6] = cell free Mcl-1:Bim TR-FRET, recombinant human Mcl-1 (171-327)

T1 sequence (Q07820 171-327): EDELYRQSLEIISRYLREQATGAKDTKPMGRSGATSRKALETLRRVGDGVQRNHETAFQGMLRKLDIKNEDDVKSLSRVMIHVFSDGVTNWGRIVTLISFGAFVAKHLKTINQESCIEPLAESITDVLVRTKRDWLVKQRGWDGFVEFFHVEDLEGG

Structure (SMILES)	IC50 [1, 3] [nM]	IC50 [2, 5] [nM]	other results
CO[C@H]1/C=C/[C@H](C)[C@H](C)[C@@H](C)S(=O)(=O)NC(=O)c2ccc3c(c2)N(C[C@@H]2CC[C@H]21)C[C@@]1(CCCc2cc(Cl)ccc21)CO3 [Example 1047, (1S,3′R,6′R,7′S,8′E,10′S,11′S,12′R)-6-chloro-7′-methoxy-10′,11′,12′-trimethyl-3,4-dihydro-2H,15′H-spiro[naphthalene-1,22′-[20]oxa[13]thia[1,14]diazatetracyclo[14.7.2.0^3,6.0^19,24]pentacosa [8,16,18,24]tetraen]-15′-one 13′,13′-dioxide]	0.424		IC50 [2, 4]: 300 nM
COCCO[C@H]1/C=C/C[C@H](C)CS(=O)(=O)NC(=O)c2ccc3c(c2)N(C[C@@H]2CC[C@H]21)C[C@@]1(CCCc2cc(Cl)ccc21)CO3 (single isomer, unassigned) [Example 376]	0.403		IC50 ([2]; 16 h): 222 nM
CCN1[C@H](C)CCC[C@H](O)[C@@H]2CC[C@H]2CN2C[C@@]3(CCCc4cc(Cl)ccc43)COc3ccc(cc32)C(=O)NS1(=O)=O [Example 84, (1S,3′R,6′R,7′S,11R)-6-chloro-12′-ethyl-7′-hydroxy-11′-methyl-3,4-dihydro-2H,15′H-spiro[naphthalene-1,22′-[20]oxa[13]thia[1,12,14]triazatetracyclo[14.7.2.0^3,6.0^19,24]pentacosa[16,18,24]trien]-15′-one 13′,13′-dioxide]	13.2	5900	
O=C1NS(=O)(=O)[C@@H]2COC[C@H]2C/C=C/[C@H](O)[C@@H]2CC[C@H]2CN2C[C@@]3(CCCc4cc(Cl)ccc43)COc3ccc1cc32 (single isomer, unassigned) [Example 1030]	0.195		IC50 ([2]; 16 h incubation): 271 nM
CC(=O)N1CCN(CCO[C@H]2/C=C/C[C@H](C)[C@@H](C)S(=O)(=O)NC(=O)c3ccc4c(c3)N(C[C@@H]3CC[C@H]32)C[C@@]2(CCCc3cc(Cl)ccc32)CO4)CC1 [Example 733, (1S,3′R,6′R,7′S,8′E,11′S,12′R)-7′-(2-(4-acetyl-1-piperazinyl)ethoxy)-6-chloro-11′,12′-dimethyl-3,4-dihydro-2H,15′H-spiro[naphthalene-1,22′-[20]oxa[13]thia[1,14]diazatetracyclo [14.7.2.0^3,6.0^19,24]pentacosa[8,16,18,24]tetraen]-15′-one-13′, 13′-dioxide]		69.7	IC50 [1, 6]: 0.284 nM
COC(C)CC1CCC=CC(OC)C2CCC2CN2CC3(CCCc4cc(Cl)ccc43)COc3ccc(cc32)C(=O)NS1(=O)=O (single isomer, unassigned) [Example 552]		2510	IC50 [1, 6]: 0.481 nM
CO[C@H]1/C=C/C[C@@H]2C[C@H]2S(=O)(=O)NC(=O)c2ccc3c(c2)N(C[C@@H]2CC[C@H]21)C[C@@]1(CCCc2cc(Cl)ccc21)CO3 (single isomer, unassigned) [Example 803]			IC50 [1, 6]: 1.06 nM; IC50 ([2]; 16 h): 804 nM
CNC(=O)CO[C@H]1/C=C/C[C@H](C)[C@@H](C)S(=O)(=O)NC(=O)c2ccc3c(c2)N(C[C@@H]2CC[C@H]21)C[C@@]1(CCCc2cc(Cl)ccc21)CO3 [Example 294, 2-(((1S,3′R,6′R,7′S,8′E,11′S,12′R)-6-chloro-11′,12′-dimethyl-13′,13′-dioxido-15′-oxo-3,4-dihydro-2H-spiro[naphthalene-1,22′-[20]oxa[13]thia[1,14]diazatetracyclo[14.7.2.0^3,6.0^19,24]pentacosa [8,16,18,24]tetraen]-7′-yl)oxy)-N-methylacetamide]	0.255	410	
O=C1NS(=O)(=O)[C@H]2CCC[C@H]2C/C=C/[C@H](O)[C@@H]2CC[C@H]2CN2C[C@@]3(CCCc4cc(Cl)ccc43)COc3ccc1cc32 (single isomer, unassigned) [Example 324]	1.68		IC50 ([2]; 16 h): 1940 nM
CC[C@@H]1C[C@@H](C)/C=C/[C@H](OCCN2CCOCC2)[C@@H]2CC[C@H]2CN2C[C@@]3(CCCc4cc(Cl)ccc43)COc3ccc(cc32)C(=O)NS1(=O)=O [Example 1026, (1S,3′R,6′R,7′S,8′E,10′R,12′R)-6-chloro-12′-ethyl-10′-methyl-7′-(2-(4-morpholinyl)ethoxy)-3,4-dihydro-2H,15′H-spiro[naphthalene-1,22′-[20]oxa[13]thia[1,14]diazatetracyclo[14.7.2.0^3,6.0^19,24]pentacosa [8,16,18,24]tetraen]-15′-one 13′,13′-dioxide]	1.12		IC50 [2, 4]: 288 nM
CONC(=O)CO[C@H]1/C=C/C[C@H](C)[C@@H](C)S(=O)(=O)NC(=O)c2ccc3c(c2)N(C[C@@H]2CC[C@H]21)C[C@@]1(CCCc2cc(Cl)ccc21)CO3 [Example 301, 2-(((1S,3′R,6′R,7′S,8′E,11′S,12′R)-6-chloro-11′,12′-dimethyl-13′,13′-dioxido-15′-oxo-3,4-dihydro-2H-spiro[naphthalene-1,22′-[20]oxa[13]thia[1,14]diazatetracyclo[14.7.2.0^3,6.0^19,24]pentacosa [8,16,18,24]tetraen]-7′-yl)oxy)-N-methoxyacetamide]	0.245	844	
C[C@@H]1[C@@H](C)C/C=C/[C@H](OC[C@@H](C)O)[C@@H]2CC[C@H]2CN2C[C@@]3(CCCc4cc(Cl)ccc43)COc3ccc(cc32)C(=O)NS1(=O)=O (single isomer, unassigned) [Example 528]			IC50 [1, 6]: 0.253 nM; IC50 ([2]; 16 h): 69.6 nM
CC[C@@H](O[C@H]1/C=C/CC[C@@H](C)S(=O)(=O)NC(=O)c2ccc3c(c2)N(C[C@@H]2CC[C@H]21)C[C@@]1(CCCc2cc(Cl)ccc21)CO3)C(=O)N(C)C (single isomer, unassigned) [Example 421]	0.686		IC50 ([2]; 16 h): 674 nM

Second part, led by results:

IC50 [1, 3] [nM]	IC50 [2, 5] [nM]	Structure (SMILES)	other results
0.336		CC[C@@H]1CC/C=C/[C@H](OCC(=O)N2CCC2)[C@@H]2CC[C@H]2CN2C[C@@]3(CCCc4cc(Cl)ccc43)COc3ccc(cc32)C(=O)NS1(=O)=O [Example 997, (1S,3′R,6′R,7′S,8′E,12′R)-7′-(2-(1-azetidinyl)-2-oxoethoxy)-6-chloro-12′-ethyl-3,4-dihydro-2H,15′H-spiro[naphthalene-1,22′-[20]oxa[13]thia[1,14]diazatetracyclo[14.7.2.0^3,6.0^19,24]pentacosa [8,16,18,24]tetraen]-15′-one 13′,13′-dioxide]	IC50 [2, 4]: 962 nM
0.312	98.8	COC(=O)CO[C@H]1/C=C/CC[C@@H](C)S(=O)(=O)NC(=O)c2ccc3c(c2)N(C[C@@H]2CC[C@H]21)C[C@@]1(CCCc2cc(Cl)ccc21)CO3 [Example 408, methyl(((1S,3′R,6′R,7′S,8′E,12′R)-6-chloro-12′-methyl-13′,13′-dioxido-15′-oxo-3,4-dihydro-2H-spiro[naphthalene-1,22′-[20]oxa[13]thia[1,14]diazatetracyclo[14.7.2.0^3,6.0^19,24]pentacosa [8,16,18,24]tetraen]-7′-yl)oxy)acetate]	
0.299	262	C=C1[C@@H](C)C/C=C/[C@H](O)[C@@H]2CC[C@H]2CN2C[C@@]3(CCCc4cc(Cl)ccc43)COc3ccc(cc32)C(=O)NS1(=O)=O (single isomer, unassigned) [Example 468]	
3.56		C[C@@H]1CC(=O)NC[C@@H]2CC[C@H]2CN2C[C@@]3(CCCc4cc(Cl)ccc43)COc3ccc(cc32)C(=O)NS(=O)(=O)[C@@H]1C (single isomer, unassigned) [Example 151]	IC50 ([2]; 16 h): 9170 nM
0.465	683	CN(C)C(=O)CN1CC/C=C/[C@H](O)[C@@H]2CC[C@H]2CN2C[C@@]3(CCCc4cc(Cl)ccc43)COc3ccc(cc32)C(=O)NS1(=O)=O [Example 24, 2-((1S,3′R,6′R,7′S,8′E)-6-chloro-7′-hydroxy-13′,13′-dioxido-15′-oxo-3,4-dihydro-2H,12′H-spiro[naphthalene-1,22′-[20]oxa[13]thia[1,12,14]triazatetracyclo[14.7.2.0^3,6.0^19,24]pentacosa[8,16,18,24]tetraen]-12′-yl)-N,N-dimethylacetamide]	
0.403		CC[C@@H]1CC/C=C/[C@H](OCc2nccn2C)[C@@H]2CC[C@H]2CN2C[C@@]3(CCCc4cc(Cl)ccc43)COc3ccc(cc32)C(=O)NS1(=O)=O [Example 965, (1S,3′R,6′R,7′S,8′E,12′R)-6-chloro-12′-ethyl-7′-((1-methyl-1H-IMIDAZOL-2-yl)methoxy)-3,4-dihydro-2H,15′H-spiro[naphthalene-1,22′-[20]oxa[13]thia[1,14]diazatetracyclo[14.7.2.0^3,6.0^19,24]pentacosa [8,16,18,24]tetraen]-15′-one 13′,13′-dioxide]	IC50 [2, 4]: 693 nM
0.24	140	COCCOCCOCCO[C@H]1/C=C/C[C@H](C)[C@@H](C)S(=O)(=O)NC(=O)c2ccc3c(c2)N(C[C@@H]2CC[C@H]21)C[C@@]1(CCCc2cc(Cl)ccc21)CO3 [Example 378, (1S,3′R,6′R,7′S,8′E,11′S,12′R)-6-chloro-7′-(2-(2-(2-methoxyethoxy)ethoxy)ethoxy)-11′,12′-dimethyl-3,4-dihydro-2H,15′H-spiro[naphthalene-1,22′-[20]oxa[13]thia[1,14]diazatetracyclo[14.7.2.0^3,6.0^19,24]pentacosa[8,16,18,24]tetraen]-15′-one 13′,13′-dioxide]	
0.347		CC[C@@H]1CC/C=C/[C@H](OCCC(=O)N2CCOCC2)[C@@H]2CC[C@H]2CN2C[C@@]3(CCCc4cc(Cl)ccc43)COc3ccc(cc32)C(=O)NS1(=O)=O [Example 1011, (1S,3′R,6′R,7′S,8′E,12′R)-6-chloro-12′-ethyl-7′-(3-(4-morpholinyl)-3-oxopropoxy)-3,4-dihydro-2H,15′H-spiro[naphthalene-1,22′-[20]oxa[13]thia[1,14]diazatetracyclo[14.7.2.0^3,6.0^19,24]pentacosa [8,16,18,24]tetraen]-15′-one 13′,13′-dioxide]	IC50 [2, 4]: 524 nM
